Source: patent EP4603105A1, “PHARMACEUTICAL COMPOSITION CONTAINING CYCLIC COMPOUND HAVING SELECTIVE KRAS INHIBITORY EFFECT AGAINST HRAS AND NRAS” (CHUGAI SEIYAKU KABUSHIKI KAISHA, priority 2022, dated 2024)

Tests used:
[1] = target: GDP-bound NRAS wild-type protein (Homo sapiens, UniProt P01111); test: Binding to NRAS by surface plasmon resonance (SPR), KD and KD ratio to KRAS; conditions: ratio of KD with respect to GDP-bound NRAS wild-type protein to KD with respect to KRAS
Procedure, shortened: (§1)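 Each cycle, GDP-bound biotin-Avi RAS was captured (~100–300 RU), compound concentrations were injected low to high for 75 s each at 100 µL/min, then the chip was regenerated. Buffer: HBS pH 7.4, 10 mM MgCl2, 10 µM GDP, 1 mM DTT, 4% DMSO; 30°C. KD from a 1:1 binding model.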

[2] = target: HRAS wild-type protein (Homo sapiens, UniProt P01112); test: Binding to HRAS by surface plasmon resonance (SPR), KD and KD ratio to KRAS; conditions: ratio of KD with respect to HRAS wild-type protein to KD with respect to KRAS
Procedure, shortened: as §1

[3] = tested on: human lung cancer strain NCI-H441; format: cell-based
Procedure, shortened: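 Signal came from […] measured per well once the reagent was added. Beforehand, cells were cultured at 37°C and 5% carbon dioxide on a compound series serially diluted in dimethyl sulfoxide.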

Chain of HRAS wild-type protein (P01112 whole entry): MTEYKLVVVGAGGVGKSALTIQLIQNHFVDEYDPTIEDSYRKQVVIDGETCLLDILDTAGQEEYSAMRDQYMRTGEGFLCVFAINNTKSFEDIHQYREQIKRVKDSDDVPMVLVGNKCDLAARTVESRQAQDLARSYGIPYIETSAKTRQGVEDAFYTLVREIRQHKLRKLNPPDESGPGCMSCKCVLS
Chain of GDP-bound NRAS wild-type protein (P01111 whole entry): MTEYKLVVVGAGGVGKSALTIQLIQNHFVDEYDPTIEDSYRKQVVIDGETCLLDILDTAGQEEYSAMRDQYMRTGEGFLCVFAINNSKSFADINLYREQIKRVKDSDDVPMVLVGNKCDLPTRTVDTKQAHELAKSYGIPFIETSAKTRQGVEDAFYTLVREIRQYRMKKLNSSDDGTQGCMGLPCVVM

Row | Structure (SMILES) | NRAS /KRAS [1] | HRAS /KRAS [2] | IC50 [3] [nM]
1 | CCO[C@@H]1C[C@H]2C(=O)NC3(CCC3)C(=O)N(C)[C@@H](C3CCCC3)C(=O)N(C)[C@H](C(=O)N(C)CC)CC(=O)N(C)[C@@H](CC3CC3)C(=O)N[C@@H]([C@@H](C)CC)C(=O)N(C)CC(=O)N(C)[C@H]3C/C=C\CCN(C3=O)[C@@H](Cc3ccc(C(F)(F)F)cc3)C(=O)N(C)CC(=O)N[C@@H](CCc3cc(F)c(C(F)(F)F)c(F)c3)C(=O)N2C1 [PP1301] | A (a compound having 10 or more and less than 20 is denoted as A) | A (a compound having 10 or more and less than 20 is denoted as A) | 4.7
2 | CCO[C@@H]1C[C@H]2C(=O)NC3(CCC3)C(=O)N(C)[C@@H](C3CCCC3)C(=O)N(C)[C@H](C(=O)N(C)CC)CC(=O)N(C)[C@@H](C)C(=O)N[C@@H]([C@@H](C)CC)C(=O)N(C)CC(=O)N(C)[C@H]3C/C=C\CCN(C3=O)[C@@H](Cc3ccc(C(F)(F)F)cc3)C(=O)N(C)CC(=O)N[C@@H](CCc3cc(F)c(C(F)(F)F)c(F)c3)C(=O)N2C1 [PP1302] | A (a compound having 10 or more and less than 20 is denoted as A) | A (a compound having 10 or more and less than 20 is denoted as A) | 9.2
3 | CCO[C@@H]1C[C@H]2C(=O)NC3(CCC3)C(=O)N(C)[C@@H](C3CCCC3)C(=O)N(C)[C@H](C(=O)N(C)CC)CC(=O)N(C)[C@@H](CC(F)F)C(=O)N[C@@H]([C@@H](C)CC)C(=O)N(C)CC(=O)N(C)[C@H]3C/C=C\CCN(C3=O)[C@@H](Cc3ccc(C(F)(F)F)cc3)C(=O)N(C)CC(=O)N[C@@H](CCc3cc(F)c(C(F)(F)F)c(F)c3)C(=O)N2C1 [PP1303] | AA (a compound having 20 or more is denoted as AA) | A (a compound having 10 or more and less than 20 is denoted as A) | 4.2
4 | CCC[C@H]1C(=O)N[C@@H]([C@@H](C)CC)C(=O)N(C)CC(=O)N(C)[C@H]2C/C=C\CCN(C2=O)[C@@H](Cc2ccc(C(F)(F)F)cc2)C(=O)N(C)CC(=O)N[C@@H](CCc2cc(F)c(C(F)(F)F)c(F)c2)C(=O)N2C[C@H](OCC)C[C@H]2C(=O)NC2(CCC2)C(=O)N(C)[C@@H](C2CCCC2)C(=O)N(C)[C@H](C(=O)N(C)CC)CC(=O)N1C [PP1304] | A (a compound having 10 or more and less than 20 is denoted as A) | A (a compound having 10 or more and less than 20 is denoted as A) | 8.8
5 | CCO[C@@H]1C[C@H]2C(=O)NC3(CCC3)C(=O)N(C)[C@@H](C3CCCC3)C(=O)N(C)[C@H](C(=O)N(CC)CC)CC(=O)N(C)[C@@H](CC)C(=O)N[C@@H]([C@@H](C)CC)C(=O)N(C)CC(=O)N(C)[C@H]3C/C=C\CCN(C3=O)[C@@H](Cc3ccc(C(F)(F)F)cc3)C(=O)N(C)CC(=O)N[C@@H](CCc3cc(F)c(C(F)(F)F)c(F)c3)C(=O)N2C1 [PP1305] | AA (a compound having 20 or more is denoted as AA) | A (a compound having 10 or more and less than 20 is denoted as A) | 13
6 | CCO[C@@H]1C[C@H]2C(=O)NC3(CCC3)C(=O)N(C)[C@@H](C3CCCC3)C(=O)N(C)[C@H](C(=O)N(CC)CC)CC(=O)N(C)[C@@H](CC(C)C)C(=O)N[C@@H]([C@@H](C)CC)C(=O)N(C)CC(=O)N(C)[C@H]3C/C=C\CCN(C3=O)[C@@H](Cc3ccc(C(F)(F)F)cc3)C(=O)N(C)CC(=O)N[C@@H](CCc3cc(F)c(C(F)(F)F)c(F)c3)C(=O)N2C1 [PP1306] | AA (a compound having 20 or more is denoted as AA) | A (a compound having 10 or more and less than 20 is denoted as A) | 14.7
7 | CCO[C@@H]1C[C@H]2C(=O)NC3(CCC3)C(=O)N(C)[C@@H](C3CCCC3)C(=O)N(C)[C@H](C(=O)N(CC)CC)CC(=O)N(C)[C@@H](C)C(=O)N[C@@H]([C@@H](C)CC)C(=O)N(C)CC(=O)N(C)[C@H]3C/C=C\CCN(C3=O)[C@@H](Cc3ccc(C(F)(F)F)cc3)C(=O)N(C)CC(=O)N[C@@H](CCc3cc(F)c(C(F)(F)F)c(F)c3)C(=O)N2C1 [PP1308] | A (a compound having 10 or more and less than 20 is denoted as A) | A (a compound having 10 or more and less than 20 is denoted as A) | 10.9
8 | CCC[C@H]1C(=O)N[C@@H]([C@@H](C)CC)C(=O)N(C)CC(=O)N(C)[C@H]2C/C=C\CCN(C2=O)[C@@H](Cc2ccc(C(F)(F)F)cc2)C(=O)N(C)CC(=O)N[C@@H](CCc2cc(F)c(C(F)(F)F)c(F)c2)C(=O)N2C[C@H](OCC)C[C@H]2C(=O)NC2(CCC2)C(=O)N(C)[C@@H](C2CCCC2)C(=O)N(C)[C@H](C(=O)N(CC)CC)CC(=O)N1C [PP1310] | AA (a compound having 20 or more is denoted as AA) | A (a compound having 10 or more and less than 20 is denoted as A) | 4.5
9 | CCC[C@H]1C(=O)N[C@@H]([C@@H](C)CC)C(=O)N(C)CC(=O)N(C)[C@H]2C/C=C\CCN(C2=O)[C@@H](Cc2ccc(C(F)(F)F)cc2)C(=O)N(C)CC(=O)N[C@@H](CCc2cc(F)c(C(F)(F)F)c(F)c2)C(=O)N2C[C@H](OCC)C[C@H]2C(=O)NC2(CCC2)C(=O)N(C)[C@@H](C2CCCC2)C(=O)N(C)[C@H](C(=O)N2CC3CCC(C2)O3)CC(=O)N1C [PP1315] | AA (a compound having 20 or more is denoted as AA) | A (a compound having 10 or more and less than 20 is denoted as A) | 34.5
10 | CCO[C@@H]1C[C@H]2C(=O)NC3(CCC3)C(=O)N(C)[C@@H](C3CCCC3)C(=O)N(C)[C@H](C(=O)N(C)CCOC)CC(=O)N(C)[C@@H](CC)C(=O)N[C@@H]([C@@H](C)CC)C(=O)N(C)CC(=O)N(C)[C@H]3C/C=C\CCN(C3=O)[C@@H](Cc3ccc(C(F)(F)F)cc3)C(=O)N(C)CC(=O)N[C@@H](CCc3cc(F)c(C(F)(F)F)c(F)c3)C(=O)N2C1 [PP1316] | A (a compound having 10 or more and less than 20 is denoted as A) | A (a compound having 10 or more and less than 20 is denoted as A) | 13.2
11 | CCO[C@@H]1C[C@H]2C(=O)NC3(CCC3)C(=O)N(C)[C@@H](C3CCCC3)C(=O)N(C)[C@H](C(=O)N(C)CCOC)CC(=O)N(C)[C@@H](CC(C)C)C(=O)N[C@@H]([C@@H](C)CC)C(=O)N(C)CC(=O)N(C)[C@H]3C/C=C\CCN(C3=O)[C@@H](Cc3ccc(C(F)(F)F)cc3)C(=O)N(C)CC(=O)N[C@@H](CCc3cc(F)c(C(F)(F)F)c(F)c3)C(=O)N2C1 [PP1317] | A (a compound having 10 or more and less than 20 is denoted as A) | B (a compound having 3 or more and less than 10 is denoted as B) | 7.6
12 | CCO[C@@H]1C[C@H]2C(=O)NC3(CCC3)C(=O)N(C)[C@@H](C3CCCC3)C(=O)N(C)[C@H](C(=O)N(C)CCOC)CC(=O)N(C)[C@@H](CC3CC3)C(=O)N[C@@H]([C@@H](C)CC)C(=O)N(C)CC(=O)N(C)[C@H]3C/C=C\CCN(C3=O)[C@@H](Cc3ccc(C(F)(F)F)cc3)C(=O)N(C)CC(=O)N[C@@H](CCc3cc(F)c(C(F)(F)F)c(F)c3)C(=O)N2C1 [PP1318] | A (a compound having 10 or more and less than 20 is denoted as A) | A (a compound having 10 or more and less than 20 is denoted as A) | 11.5
13 | CCO[C@@H]1C[C@H]2C(=O)NC3(CCC3)C(=O)N(C)[C@@H](C3CCCC3)C(=O)N(C)[C@H](C(=O)N(C)CCOC)CC(=O)N(C)[C@@H](C)C(=O)N[C@@H]([C@@H](C)CC)C(=O)N(C)CC(=O)N(C)[C@H]3C/C=C\CCN(C3=O)[C@@H](Cc3ccc(C(F)(F)F)cc3)C(=O)N(C)CC(=O)N[C@@H](CCc3cc(F)c(C(F)(F)F)c(F)c3)C(=O)N2C1 [PP1319] | A (a compound having 10 or more and less than 20 is denoted as A) | B (a compound having 3 or more and less than 10 is denoted as B) | 57.5
14 | CCO[C@@H]1C[C@H]2C(=O)NC3(CCC3)C(=O)N(C)[C@@H](C3CCCC3)C(=O)N(C)[C@H](C(=O)N(C)CCOC)CC(=O)N(C)[C@@H](CC(F)F)C(=O)N[C@@H]([C@@H](C)CC)C(=O)N(C)CC(=O)N(C)[C@H]3C/C=C\CCN(C3=O)[C@@H](Cc3ccc(C(F)(F)F)cc3)C(=O)N(C)CC(=O)N[C@@H](CCc3cc(F)c(C(F)(F)F)c(F)c3)C(=O)N2C1 [PP1320] | A (a compound having 10 or more and less than 20 is denoted as A) | A (a compound having 10 or more and less than 20 is denoted as A) | 7.7
15 | CCO[C@@H]1C[C@H]2C(=O)NC3(CCC3)C(=O)N(C)[C@@H](C3CCCC3)C(=O)N(C)[C@H](C(=O)N(C)CCOC)CC(=O)N(C)[C@@H](CC)C(=O)N[C@@H]([C@@H](C)CC)C(=O)N(C)CC(=O)N(C)[C@H]3C/C=C\CCN(C3=O)[C@@H](Cc3ccc(C(F)(F)F)cc3)C(=O)N(C)CC(=O)N[C@@H](CCc3ccc(C(F)(F)F)c(OC)c3)C(=O)N2C1 [PP1321] | A (a compound having 10 or more and less than 20 is denoted as A) | B (a compound having 3 or more and less than 10 is denoted as B) | 13.9
16 | CCO[C@@H]1C[C@H]2C(=O)NC3(CCC3)C(=O)N(C)[C@@H](C3CCCC3)C(=O)N(C)[C@H](C(=O)N(C)CCOC)CC(=O)N(C)[C@@H](CC)C(=O)N[C@@H]([C@@H](C)CC)C(=O)N(C)CC(=O)N(C)[C@H]3C/C=C\CCN(C3=O)[C@@H](Cc3ccc(C(F)(F)F)cc3)C(=O)N(C)CC(=O)N[C@@H](CCc3ccc4sccc4c3)C(=O)N2C1 [PP1322] | A (a compound having 10 or more and less than 20 is denoted as A) | A (a compound having 10 or more and less than 20 is denoted as A) | 56.2
